Experimental findings from US11147816B2, “Composition for inducing differentiation and protection of neural stem cells and method for inducing neuro-regeneration using the same composition” (GENUV Inc., priority 2016, dated 2021) are described below.

For data set [1], the system named is mouse embryonic neural stem cells. Kind of data set: Morphology analysis of NSC differentiation in mouse embryonic neural stem cells (Examples 1, 6). In kind it is cell-based. As for the experimental part: Neural stem cells were isolated from the brain of a day 14.5 mouse embryo, treated with 10 ng/ml human basic fibroblast growth factor (bFGF) (Peprotech, Princeton, NG, cat#.100-18B) and 20 ng/ml human epidermal growth factor (EGF) (Peprotech, cat#. AF-100-15) in a N2 culture medium, and cultured in suspension in a 25 cm2 flask (Nunc, Pittsburgh, Pa.) for 4 days. Formation of neurospheres was observed after 2 days.
In order to isolate single cells, 6-well plates were prepared the day before by treating the wells with 15 μg/ml poly-L-ornithine (Sigma, St. Louis, Mo., cat#.P2533) solution and incubating overnight at 37° C. for coating. The day of the single cell isolation, poly-L-ornithine solution was removed, the plates were washed with PBS three times, and 10 μg/ml fibronectin (Gibco, Waltham, Mass., cat#. 33016015) solution was added and incubated at 37° C. for 2 hours for coating.
Various concentrations of the compound of [Formula 1] […]

Data set [2] has as its system mouse adult neural stem cells. The conditions noted are these: trametinib 10 nM, 100 nM, memantine 5 μM, 10 μM, 4 days. As for the experimental part: NSC were isolated from the subventricular zone of week 8 mouse brain, treated with 20 ng/ml human basic fibroblast growth factor (bFGF) and 20 ng/ml human epidermal growth factor (EGF) in an IPM medium, and cultured as a suspension in 24-well plates for 7 days.
Two days before the isolation of single cells, 6-well plates were prepared by treating the wells with 10 μg/ml poly-L-ornithine solution and incubating overnight at room temperature for coating. The next day, poly-L-ornithine solution was removed and the plates were washed 3 times with sterilized triple distilled water. […] The culture solution used is N2 culture medium (supplemented with 20 ng/ml bFGF and 20 ng/ml EGF). Right before seeding, the coating solution was suctioned out, and the single cells were uniformly seeded into the culture plate before the plate dried up. Cells were allowed to attach to the plates for about one minute, and after checking that cells were sufficiently attached, an additional 1.5 ml of culture medium (N2 culture medium with 20 ng/ml bFGF and 20 ng/ml EGF) was added to the cells and cultured in a 37° C. incubator for 24 hours.
Wells not treated with amyloid-beta were left to use as negative controls.
Gibco's (Waltham, Mass.) human Aβ (1-42) was purchased to use for the amyloid-beta (Aβ), and the following process was followed to create oligomers. First, amyloid-beta was dissolved in 100% HFIP (1,1,1,3,3,3-hexafluoro-2-propanol) (Sigma, cat#.105228) to obtain a concentration of 1 mg/ml and vortexed at room temperature for 1 hour. Then, it was dried for 10 minutes in a speed Vac, after which DMSO (Sigma, cat#.D2650) was added to bring the concentration to 5 mM and then lightly vortexed at room temperature for 10 minutes. […] The solution was incubated at 4° C. for 24 hours and then added into the cultured cells.
The NCSs were cultured with the daily addition of EGF, bFGF, amyloid-beta, and test materials for 4 days.

For data set [3], the system named is mouse adult neural stem cells. Kind of data set: qRT-PCR of relative mRNA expression of neuronal markers in mouse adult NSC (Example 4-2). In kind it is cell-based. The conditions noted are these: 10 nM for 2 days. On the technique in general: Real-time PCR tracks product formation cycle by cycle.
For data set [4], the system named is 5XFAD mouse. Kind of data set: Nissl, NeuN and DCX staining in the hippocampal dentate gyrus (Example 9-2). In kind it is in vivo. Particulars: orally daily for 28 days. As for the experimental part: After placing in 0.1% cresyl violet (Sigma, cat#. C5042) solution at room temperature for 15 minutes, they were dehydrated by sequentially immersing in 80%, 90%, 100% alcohol, and xylene. Coverslips were put on the slides and the neurons examined.
NeuN staining was performed by the same method as described in Example 8 as was DCX staining, but using anti-DCX antibodies (Santa Cruz, cat#. sc271390) instead of anti-NeuN antibodies.

The test system of data set [5] is 5XFAD mouse. Kind of data set: TUNEL assay, neuroprotective activity (Example 10). The conditions noted are these: orally daily for 28 days, vs vehicle. In kind it is in vivo. As for the experimental part: The sagittal brain tissue slides described in Example 8 were rehydrated and stained with the TUNEL assay kit (Promega, Wis., USA, cat#. G3250). Specifically, the brain tissue slides were permeabilized with 20 μg/ml proteinase K solution for 10 minutes, incubated with equilibration buffer for 10 minutes, and then incubated with TdT solution at 37° C. for 1 hour. The staining of the somatosensory cortex and subiculum area, areas known to show significant cell death in 5XFAD mouse, were observed. TUNEL assay was also performed on the tissue slides of normal adult mouse brain (as control) to confirm that staining was properly done.

Data set [6] deals with 5XFAD mouse. The experiment in a line: Cerebellar Purkinje cell Tuj1 and calbindin staining (Example 11). It is filed as in vivo. Particulars: particularly 0.1 mg/kg, orally daily for 28 days, vs vehicle. From the text: Two slides for Tuj1 staining and three for calbindin staining are shown for each treatment group.
In a further data set the test system is Aβ(1-40) and Aβ(1-42). The experiment in a line: ELISA of Aβ(1-40) and Aβ(1-42) in brain hemispheres (Example 13). In kind it is in vivo, mouse. The conditions noted are these: orally daily for 28 days, vs vehicle. As for the experimental part: Using the ground powder of 5XFAD mouse brain hemispheres obtained in Example 12, the amount of Aβ(1-40) and Aβ(1-42) was quantified by ELISA (enzyme-linked immunosorbent assay). […] After measuring the protein concentration, dilution buffer was added to obtain 30˜50 μg of protein in 100 μl solution. 100 μl each of anti-Aβ(1-40) and Aβ(1-42) antibodies were added to the 96-well plates, incubated at room temperature for 2 hours, then removed and washed 4 times with wash buffer. 100 μl each of HRP-conjugated secondary antibodies was added and incubated at room temperature for 30 minutes. The solution was then removed and washed again 4 times with wash buffer. 100 μl of the […] was added to the wells, incubated in the dark for 30 minutes, and 100 μl of the stop solution added to terminate the reaction. Then, the chemiluminiscence reaction was measured at 450 nm with an ELISA plate reader. The absorbance was converted in reference to the standard concentration and the concentration of each protein was determined. The amount of Aβ(1-40) and Aβ(1-42) in reference to the total amount of protein (30˜50 μg) was calculated, and then the amount of Aβ(1-42) in reference to the amount of Aβ(1-40) was calculated.

For a further data set, the system named is pERK. Kind of data set: Western blotting of pERK in brain hemispheres (Example 12). The conditions noted are these: 0.1 mg/kg and 1.0 mg/kg orally daily for 28 days, vs vehicle. A general note: In western blotting, separated proteins are transferred to a membrane and probed.
Data set [7] has as its system 5XFAD mouse. Kind of data set: BrdU staining in the hippocampal dentate gyrus (Example 9-3). The conditions noted are these: orally daily for 28 days, vs vehicle.
Experimental: For the BrdU staining to be performed later, 50 mg/kg of BrdU (Sigma, cat#. B5002) was added to the daily dose for the last 5 days. The mouse was then anesthetized and perfused with PBS for the extraction of the brain. Of the brains extracted from 3 mice of each group, half of the brain tissue (hemispheres) was immediately stored in the deep freezer for western blotting and ELISA experiments to be performed later. The other half of the hemispheres plus another 3 extracted mice brains per group were placed in 10% formalin solution at 4° C. for 1 day, which was then followed with the proceeding steps to allow good penetration of paraffin into the brain tissue. The brain tissues were immersed sequentially in 70%, 80%, 95%, 100% alcohol for 1 hour each for dehydration, then immersed in xylene 3 times for 1 hour each for clearing, and embedded in paraffin by placing in liquid paraffin 2 times for 1 hour each. After these procedures, the paraffin-embedded brain tissue (paraffin block) was cut into 5 μm sections, mounted on slides, and stored at room temperature. Prior to immunohistochemical staining, the tissues on the slides were rehydrated by sequentially immersing in xylene, 100%, 90%, 80%, 70%, 50% alcohol,and then water for 5 minutes each. […]
The test system of data set [8] is 5XFAD mouse. The experiment in a line: NeuN immunohistochemical staining, number of neurons in the Alzheimer's disease mouse model (Example 8).
Experimental: For the BrdU staining to be performed later, 50 mg/kg of BrdU (Sigma, cat#. B5002) was added to the daily dose for the last 5 days. The mouse was then anesthetized and perfused with PBS for the extraction of the brain. […] The other half of the hemispheres plus another 3 extracted mice brains per group were placed in 10% formalin solution at 4° C. for 1 day, which was then followed with the proceeding steps to allow good penetration of paraffin into the brain tissue. The brain tissues were immersed sequentially in 70%, 80%, 95%, 100% alcohol for 1 hour each for dehydration, then immersed in xylene 3 times for 1 hour each for clearing, and embedded in paraffin by placing in liquid paraffin 2 times for 1 hour each. After these procedures, the paraffin-embedded brain tissue (paraffin block) was cut into 5 μm sections, mounted on slides, and stored at room temperature. Prior to immunohistochemical staining, the tissues on the slides were rehydrated by sequentially immersing in xylene, 100%, 90%, 80%, 70%, 50% alcohol,and then water for 5 minutes each. […] The next day, the slides were incubated with anti-rabbit antibodies (Vector lab, cat#. PI-1000) at room temperature for 1 hour and then stained with DAB staining for the analysis of the neuronal distribution in the brain.
FIG. 12b indicates the number of NeuN stained cells counted and represented as the percentage of the number of cells per unit area in the somatosensory cortex layer 5 region. Area samples were taken from 3 areas per mouse, 3 mice per group, so the number of cells counted was from a total of 9 areas.
FIG. 13b indicates the number of NeuN stained cells counted and represented as the percentage of the number of cells per unit area in the motor cortex layer 5 region. Area samples were taken from 6 areas per mouse, 3 mice per group, so the number of cells counted was from a total of 18 areas.
FIG. 14b indicates the number of NeuN stained cells counted and represented as the percentage of the number of cells per unit area in the dotted area of the hippocampal subiculum shown in FIG. 14a. Area samples were taken from 3 areas per mouse, 3 mice per group, so the number of cells counted was from a total of 9 areas.
[9] abbreviates: 0.1 mg/kg and 1.0 mg/kg orally daily for 28 days, vs vehicle.

Bounds are passed on as bounds.

Experimental for pERK: The mouse was then anesthetized and perfused with PBS for the extraction of the brain. Of the brains extracted from 3 mice of each group, half of the brain tissue (hemispheres) was immediately stored in the deep freezer for western blotting and ELISA experiments to be performed later.
The powder was divided into 6 parts, put into new tubes, and placed back into the deep freezer. […] The powder was carefully suspended with a pipette in RIPA buffer, incubated on ice for 10 minutes, centrifuged at 13000 rpm, 4° C., and the supernatant was collected. […] The protein bands were detected with a photosensitive imaging system (FIG. 19a). In order to quantify the change in pERK expression, the expression levels of pERK and ERK were measured by densitometry, and the expression level of pERK was normalized against the expression level of ERK.

Consider `CC(=O)Nc1cccc(-n2c(=O)n(C3CC3)c(=O)c3c(Nc4ccc(I)cc4F)n(C)c(=O)c(C)c32)c1` [trametinib, N-(3-{3-cyclopropyl-5-[(2-fluoro-4-iodophenyl)amino]-6,8-dimethyl-2,4,7-trioxo-3,4,6,7-tetrahydropyrido[4,3-d]pyrimidin-1(2H)-yl}phenyl)acetamide], for which the “differentiation of NSC into neurons (morphology)” value in data set [1] (10 nM, 25 nM and 100 nM, added daily, 4 days) is “readily induced the differentiation of NSC into neurons”. In addition, in data set [1] (0.1 μM, day 2 of culture), the “NSC differentiation-inducing effect (morphology)” value is listed as “excellent NSC differentiation-inducing effect”. For the same molecule, the “concentration at which the differentiation-inducing effect is seen” value in data set [1] (added daily, 4 days of culture) is recorded as ≥ 10 nM. The “cell toxicity / cell death (morphology)” value in data set [2] (AS703026 10 μM) is reported as “did not elicit cell toxicity”. In addition, the “differentiation of NSC into neurons (morphology)” value in [2] (with or without 10 μM oligomeric Aβ(1-42)) is reported as “readily induced the differentiation of NSC into neurons”. In data set [3], the “mRNA expression of cholinergic neuron marker ChAT” value is reported as “increased the expression”, the “mRNA expression of dopaminergic neuron marker TH” value is “increased the expression” and the “mRNA expression of neuronal marker Tuj1” value is listed as “increased the expression”. Further, in the data set on 5XFAD mouse [4], the “immature neurons stained by DCX in the dentate gyrus” value is recorded as “seen to be present” and the “number of cells with morphology of Type 2 or Type 3 cells in the subgranular zone of the dentate gyrus (Nissl, NeuN)” value is given as “increased considerably”. Also, the “number of TUNEL stained cells in the somatosensory cortex and subiculum” value with 5XFAD mouse [5] is on record as “significantly lower”. Moreover, in the data set on 5XFAD mouse [6], the “Purkinje cell axon structure” value is “increased axon arborization or at least with preserved axon structure”. Moreover, the “amount of Aβ(1-42)/Aβ(1-40)” value with Aβ(1-40) and Aβ(1-42) was “decreased”. Besides, in the data set with pERK, the “protein level of pERK in the brain” value was “considerably lower”. Moreover, the “number of BrdU stained cells in the dentate gyrus” value with 5XFAD mouse [7] is recorded as “an increase in the number of cells stained with BrdU”. In the data set with 5XFAD mouse [8] (setting [9]), the “number of NeuN stained neurons, hippocampal subiculum” value is “significant increase in the number of neurons”; the “number of NeuN stained neurons, motor cortex layer 5” value is on record as “significant increase in the number of neurons”; the “number of NeuN stained neurons, somatosensory cortex layer 5” value is given as “significant increase in the number of neurons stained with NeuN”. In addition, in the data set with 5XFAD mouse [8] (5xFAD mouse experiments), the “dose showing neural stem cell differentiation-inducing activity” value is recorded as 0.1 mg/kg/day.
